Data on two compounds can be found in patent US20260176300A1, “N-ARYLPYRAZOLE NOD2 AGONISTS AS PROMOTERS OF IMMUNE CHECKPOINT INHIBITOR THERAPY” (THE SCRIPPS RESEARCH INSTITUTE, priority 2022, published 2026).

This series concerns the target T1, NOD2 (Homo sapiens, UniProt Q9HC29).
T1 construct: host or cells: HEK-293T-derived HEK-Blue NF-kB/SEAP reporter cells
As to the kind of experiment: NOD2-HEK-Blue NF-κB reporter cell activation assay (NOD2-expressing HEK-293T cells). In kind it is cell-based. The conditions noted are these: for EC50: calculated, three-parameter dose-response nonlinear regression, read-out: pEC50 (μM), dose-dependent activation of NOD2-expressing HEK-293T cells (converted). The method in brief: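 HEK-Blue NOD2 reporter cells in HEK-Blue detection medium were exposed to compounds for 8-10 h at 37° C. (or 16 h in complete DMEM, then QUANTI-Blue for 2-4 h). Secreted alkaline phosphatase read by absorbance at 630 nm; pEC50 from three-parameter dose-response nonlinear regression.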

T1 sequence (Q9HC29 whole entry): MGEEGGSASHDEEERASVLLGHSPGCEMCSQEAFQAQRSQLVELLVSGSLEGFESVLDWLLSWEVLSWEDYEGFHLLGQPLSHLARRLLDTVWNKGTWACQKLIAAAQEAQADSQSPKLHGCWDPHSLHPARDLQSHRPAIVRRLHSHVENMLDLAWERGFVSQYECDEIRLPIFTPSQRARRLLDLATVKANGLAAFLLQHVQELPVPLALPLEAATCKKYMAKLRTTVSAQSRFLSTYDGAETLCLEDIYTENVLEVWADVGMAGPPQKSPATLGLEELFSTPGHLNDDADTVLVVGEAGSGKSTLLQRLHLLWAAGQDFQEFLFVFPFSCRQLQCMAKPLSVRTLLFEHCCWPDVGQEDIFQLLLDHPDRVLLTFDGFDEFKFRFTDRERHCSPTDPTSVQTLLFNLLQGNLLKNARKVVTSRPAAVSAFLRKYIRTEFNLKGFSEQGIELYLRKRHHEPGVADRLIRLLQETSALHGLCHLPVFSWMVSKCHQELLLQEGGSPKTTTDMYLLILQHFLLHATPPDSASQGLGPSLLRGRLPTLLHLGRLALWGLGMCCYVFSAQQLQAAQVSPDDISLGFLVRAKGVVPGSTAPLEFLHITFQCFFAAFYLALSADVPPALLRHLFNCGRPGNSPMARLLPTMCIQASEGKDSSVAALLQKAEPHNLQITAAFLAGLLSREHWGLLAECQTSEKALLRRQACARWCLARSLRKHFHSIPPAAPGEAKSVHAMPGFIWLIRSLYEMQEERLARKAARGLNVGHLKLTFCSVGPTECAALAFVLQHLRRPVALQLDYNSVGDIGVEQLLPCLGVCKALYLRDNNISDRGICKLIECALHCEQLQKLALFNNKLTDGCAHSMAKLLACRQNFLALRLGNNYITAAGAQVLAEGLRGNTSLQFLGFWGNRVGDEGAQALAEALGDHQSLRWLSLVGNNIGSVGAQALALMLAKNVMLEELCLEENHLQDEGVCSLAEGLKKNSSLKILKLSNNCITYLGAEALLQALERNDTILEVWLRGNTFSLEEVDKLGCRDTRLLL

Regarding `CC(=O)N[C@H]1C(O)O[C@H](CO)[C@@H](O)[C@@H]1O[C@H](C)C(=O)N[C@@H](C)C(=O)N[C@H](CCC(=O)O)C(N)=O` (stereo partly drawn) [MDP, (4R)-4-((2S)-2-((2R)-2-(((3R,4R,5S,6R)-3-acetamido-2,5-dihydroxy-6-(hydroxymethyl)tetrahydro-2H-pyran-4-yl)oxy)propanamido)propanamido)-5-amino-5-oxopentanoic acid, reference compound], the EC50 was 0.126 µM.
In the case of `CCOC(=O)CC[C@@H](NC(=O)[C@@H](NC(=O)c1c(C)nn(-c2cc[nH]c(=O)c2)c1C)C(C)C)C(=O)OCC` [TT030, Diethyl (3,5-dimethyl-1-(2-oxo-1,2-dihydropyridin-4-yl)-1H-pyrazole-4-carbonyl)-L-valyl-D-glutamate], the EC50 was 0.251 µM. Also, the “lipophilic ligand efficiency (LLE)” value (calculated pEC50 vs. clogP, FIG. 2G) is 6.81.
